# Source: patent publication US20110015119A1, “NOVEL SEMI-SYNTHETIC GLYCOPEPTIDES AS ANTIBACTERIAL AGENTS” (LEAD THERAPEUTICS, INC., priority 2009, published 2011)
# Like-named read-outs stand apart in the source and are kept apart here.
# How the values were obtained:
# Format in all cases: cell-based
# [1] = system: Staphylococcus aureus 100 (ATCC 29213); experiment: MIC by broth microdilution, SA 100
# Method: (§1) Antibacterial activity in vitro is investigated by broth microdilution method in Meuller-Hinton broth as recommended by NCCLS. All strains tested are clinical isolates either sensitive or resistant to natural glycopeptides. MIC values were determined using the CLSI-recommended broth microdilution procedure (Clinical and Laboratory Standards Institute, Methods for Dilution Antimicrobial Susceptibility Tests for Bacteria That Grow Aerobically; Approved Standard-Seventh Edition.). Automated liquid handlers (Multidrop 384, Labsystems, Helsinki, Finland; Biomek 2000 and Multimek 96, Beckman Coulter, Fullerton Calif.) were used to conduct serial dilutions and liquid transfers. The MIC value for vancomycin is given for comparison. The abbreviations for organisms tested are as follow: SA 100—Staphylococcus aureus 100 (ATCC 29213); SA 757—Staphylococcus aureus 757 (MRSA); SA 2012—Staphylococcus aureus 2012 (VISA); SE 835—Staphylococcus epidermidis 835; SE 831—Staphylococcus epidermidis 831 (MRSE); EFc 101—Enterococcus faecalis 101 (ATCC 29212); EFc 848—Enterococcus faecalis 848 (VRE, Van A); EFcm 800—Enterococcus faecium 800; EFcm 752—Enterococcus faecium 752 (VRE, Van A); SPNE 1195—Streptococcus pneumoniae 1195 (ATCC 49619); SPY 712—Streptococcus pyogenes 712.
# [2] = system: Staphylococcus aureus 757 (MRSA); experiment: MIC by broth microdilution, SA 757; details: read-out: MIC SA 757
# Method: as §1
# [3] = system: Staphylococcus aureus 2012 (VISA); experiment: MIC by broth microdilution, SA 2012; details: class symbols
# Method: as §1
# [4] = system: Staphylococcus epidermidis 835; experiment: MIC by broth microdilution, SE 835
# Method: as §1
# [5] = system: Staphylococcus epidermidis 831 (MRSE); experiment: MIC by broth microdilution, SE 831; details: read-out: MIC SE 831
# Method: as §1
# [6] = system: Enterococcus faecalis 101 (ATCC 29212); experiment: MIC by broth microdilution, EFc 101; details: class symbols
# Method: as §1
# [7] = system: Enterococcus faecalis 848 (VRE, Van A); experiment: MIC by broth microdilution, EFc 848; details: class symbols
# Method: as §1
# Enterococcus faecium 800 = experiment: MIC by broth microdilution, EFcm 800
# Method: as §1
# [8] = system: Enterococcus faecium 752 (VRE, Van A); experiment: MIC by broth microdilution, EFcm 752; details: class symbols
# Method: as §1
# [9] = system: Streptococcus pneumoniae 1195 (ATCC 49619); experiment: MIC by broth microdilution, SPNE 1195
# Method: as §1
# [10] = system: Streptococcus pyogenes 712; experiment: MIC by broth microdilution, SPY 712
# Method: as §1
# [11] = ATCC29213, Staphylococcus aureus 100 (ATCC 29213), class symbols, read-out: MIC SA 100
# [12] = Staphylococcus aureus 757 (MRSA), class symbols
# [13] = Staphylococcus aureus 2012 (VISA), read-out: MIC SA 2012
# [14] = Staphylococcus epidermidis 835, class symbols, read-out: MIC SE 835
# [15] = Staphylococcus epidermidis 831 (MRSE), class symbols
# [16] = ATCC29212, Enterococcus faecalis 101 (ATCC 29212), read-out: MIC E FC 101
# [17] = Enterococcus faecalis 848 (VRE, Van A), read-out: MIC E FC 848
# [18] = Enterococcus faecium 800, class symbols, read-out: MIC E FCM 800
# [19] = Enterococcus faecium 752 (VRE, Van A), read-out: MIC E FCM 752
# [20] = ATCC49619, Streptococcus pneumoniae 1195 (ATCC 49619), class symbols, read-out: MIC S PNE 1195
# [21] = Streptococcus pyogenes 712, class symbols, read-out: MIC S PYO 712
"MIC [1, 11]","MIC [2, 12]","MIC [3, 13]","MIC [4, 14]","MIC [5, 15]","MIC [6, 16]","MIC [7, 17]",MIC (Enterococcus faecium 800; [18]),"MIC [8, 19]","MIC [9, 20]","MIC [10, 21]",Compound,also measured
0.01 to 0.5 µg/mL,0.01 to 0.5 µg/mL,0.5 to 1 µg/mL,0.01 to 0.5 µg/mL,0.01 to 0.5 µg/mL,0.01 to 0.5 µg/mL,> 16 µg/mL,0.01 to 0.5 µg/mL,2 to 4 µg/mL,0.01 to 0.5 µg/mL,0.01 to 0.5 µg/mL,"CCCCCCc1ccc(NC(=O)NCCCCCCNCc2c(O)cc3c(c2O)-c2cc(ccc2O)[C@H]2NC(=O)[C@@H]4NC(=O)[C@H](CC(N)=O)NC(=O)[C@H](NC(=O)[C@@H](CC(C)C)NC)[C@H](O)c5ccc(c(Cl)c5)Oc5cc4cc(c5O[C@@H]4O[C@H](CO)[C@@H](O)[C@H](O)[C@H]4O[C@H]4C[C@](C)(NC(=O)NC5CC5)[C@H](O)[C@H](C)O4)Oc4ccc(cc4Cl)[C@@H](O)[C@H](NC2=O)C(=O)N[C@@H]3C(=O)O)cc1 (atropisomer, axis not shown) [Compound 368]",
0.01 to 0.5 µg/mL,0.01 to 0.5 µg/mL,0.01 to 0.5 µg/mL,0.01 to 0.5 µg/mL,0.01 to 0.5 µg/mL,0.01 to 0.5 µg/mL,> 16 µg/mL,0.01 to 0.5 µg/mL,8 to 16 µg/mL,0.01 to 0.5 µg/mL,0.01 to 0.5 µg/mL,"CCCCCOc1ccc(S(=O)(=O)NCCCCCCNCc2c(O)cc3c(c2O)-c2cc(ccc2O)[C@H]2NC(=O)[C@@H]4NC(=O)[C@H](CC(N)=O)NC(=O)[C@H](NC(=O)[C@@H](CC(C)C)NC)[C@H](O)c5ccc(c(Cl)c5)Oc5cc4cc(c5O[C@@H]4O[C@H](CO)[C@@H](O)[C@H](O)[C@H]4O[C@H]4C[C@](C)(NC(=O)CN)[C@H](O)[C@H](C)O4)Oc4ccc(cc4Cl)[C@@H](O)[C@H](NC2=O)C(=O)N[C@@H]3C(=O)O)cc1 (atropisomer, axis not shown) [Compound 345]",
0.01 to 0.5 µg/mL,0.01 to 0.5 µg/mL,0.01 to 0.5 µg/mL,0.01 to 0.5 µg/mL,0.01 to 0.5 µg/mL,0.01 to 0.5 µg/mL,> 16 µg/mL,0.01 to 0.5 µg/mL,1 to 2 µg/mL,0.01 to 0.5 µg/mL,0.01 to 0.5 µg/mL,"CCCCCCc1ccc(S(=O)(=O)NCCCCCCNCc2c(O)cc3c(c2O)-c2cc(ccc2O)[C@H]2NC(=O)[C@@H]4NC(=O)[C@H](CC(N)=O)NC(=O)[C@H](NC(=O)[C@@H](CC(C)C)NC)[C@H](O)c5ccc(c(Cl)c5)Oc5cc4cc(c5O[C@@H]4O[C@H](CO)[C@@H](O)[C@H](O)[C@H]4O[C@H]4C[C@](C)(NC(=O)NC5CC5)[C@H](O)[C@H](C)O4)Oc4ccc(cc4Cl)[C@@H](O)[C@H](NC2=O)C(=O)N[C@@H]3C(=O)O)cc1 (atropisomer, axis not shown) [Compound 365]",
,,,,,,,,,,,"CCCCCCCOc1ccc(S(=O)(=O)NCCCCCCNC(=O)Oc2cc(O)c3c(c2)[C@@H](C(=O)O)NC(=O)[C@H]2NC(=O)[C@H](NC(=O)[C@@H]4NC(=O)[C@H](CC(N)=O)NC(=O)[C@H](NC(=O)[C@@H](CC(C)C)NC)[C@H](O)c5ccc(c(Cl)c5)Oc5cc4cc(c5O[C@@H]4O[C@H](CO)[C@@H](O)[C@H](O)[C@H]4O[C@H]4C[C@](C)(N)[C@H](O)[C@H](C)O4)Oc4ccc(cc4Cl)[C@H]2O)c2ccc(O)c-3c2)cc1 (atropisomer, axis not shown) [Compound 355]","MIC ([1]; Staphylococcus aureus, ATCC29213, read-out: MIC SA 100): 0.01 to 0.5 µg/mL; MIC ([2]; Staphylococcus aureus, MRSA): 0.01 to 0.5 µg/mL; MIC ([3]; Staphylococcus aureus, VISA, read-out: MIC SA 2012, Staphylococcus aureus 2012 (VISA)): 0.5 to 1 µg/mL; MIC ([4]; Staphylococcus epidermidis, 835, read-out: MIC SE 835): 0.01 to 0.5 µg/mL; MIC ([5]; Staphylococcus epidermidis, MRSE): 0.01 to 0.5 µg/mL; MIC ([6]; Enterococcus faecalis, ATCC29212, read-out: MIC E FC 101, Enterococcus faecalis 101 (ATCC 29212)): 0.01 to 0.5 µg/mL; MIC ([7]; Enterococcus faecalis, VRE, read-out: MIC E FC 848, Enterococcus faecalis 848 (VRE, Van A)): 1 to 2 µg/mL; MIC (Enterococcus faecium 800; Enterococcus faecium, 800, read-out: MIC E FCM 800): 0.01 to 0.5 µg/mL; MIC ([8]; Enterococcus faecium, VRE, read-out: MIC E FCM 752, Enterococcus faecium 752 (VRE, Van A)): 0.01 to 0.5 µg/mL; MIC ([9]; Streptococcus pneumoniae, ATCC49619, read-out: MIC S PNE 1195): 0.01 to 0.5 µg/mL; MIC ([10]; Streptococcus pyogenes, 712, read-out: MIC S PYO 712): 0.01 to 0.5 µg/mL"
